From US20050163848A1 (priority 2003, published 2005)
Where two headings read alike, the source gives them in different places.

Experiments:
in vivo = conditions: male, Sprague-Dawley, rat, plasma
[1] = rats, normalized to 1 mg gabapentin/kg
colonic segments = assay: Macroscopic observation of excised colonic segments for irritation; assay type: in vivo; conditions: rats, 4 hour after intracolonic bolus 10 mg/rat
[2] = rats; for AUC∞: time zero to infinity, based on 1 mg gabapentin/rat
[3] = in water and in both basic and acidic aqueous solutions; cited from earlier work
[4] = n-octanol/0.05M phosphate buffer, pH 7.4; cited from earlier work

Compound	bioavailability (in vivo; iv, 1 mg/rat)	bioavailability (in vivo; other: intracolonic bolus into the ligated colon, 10 mg/rat)	AUC (0~4 h) ([1]; duodenal, dose 14.8 ± 0.1 mg/kg)	AUC (0~4 h) ([1]; duodenal, dose 30.6 ± 1.7 mg/kg)	AUC (0~4 h) ([1]; duodenal, dose 59.8 ± 1.7 mg/kg)	AUC (0~4 h) ([1]; iv, dose 1 mg/kg, hour 4 point assumes log-linear decline)	histopathological change of colonic mucosa visible to the naked eye (colonic segments)	AUC∞ ([2]; colonic intubation 10 mg/rat)	AUC∞ ([2]; iv 1 mg/rat)	absorption after intracolonic bolus ([2]; ligated colon, 10 mg/rat, FIG. 5)	solubility [3]	log of the partition coefficient [4]
NCC1(CC(=O)O)CCCCC1 [gabapentin, 1-(aminomethyl)cyclohexaneacetic acid]	100%	4.9%	1705.2 ± 257.2 ng·h/mL/mg	1205.7 ± 276.3 ng·h/mL/mg	726.1 ± 223.9 ng·h/mL/mg	2727.1 ± 259.1 ng·h/mL/mg	no histopathological change visible to the naked eye	301.4 ng · h/mL-mg	6090.3 ng · h/mL-mg	slow absorption	freely soluble	−1.25
CCCCCCCCCCCCOS(=O)(=O)O.NCC1(CC(=O)O)CCCCC1 [gabapentin lauryl sulfate complex]							no histopathological change visible to the naked eye					
